Laboratory results published in ChEMBL document CHEMBL4130360, “Synthesis of 2-imino and 2-hydrazono thiazolo[4,5-d]pyrimidines as corticotropin releasing factor (CRF) antagonists” (Eur J Med Chem, 2017).

These molecules were tested against T1, Corticotropin-releasing factor receptor 1 (Homo sapiens, UniProt P34998) (assay: Displacement of [125I]-Tyr0-sauvagine from human CRFR1 expressed in HEK293 cell membrane homogenates after 120 mins by gamma counting method).
T1 sequence (P34998 whole entry): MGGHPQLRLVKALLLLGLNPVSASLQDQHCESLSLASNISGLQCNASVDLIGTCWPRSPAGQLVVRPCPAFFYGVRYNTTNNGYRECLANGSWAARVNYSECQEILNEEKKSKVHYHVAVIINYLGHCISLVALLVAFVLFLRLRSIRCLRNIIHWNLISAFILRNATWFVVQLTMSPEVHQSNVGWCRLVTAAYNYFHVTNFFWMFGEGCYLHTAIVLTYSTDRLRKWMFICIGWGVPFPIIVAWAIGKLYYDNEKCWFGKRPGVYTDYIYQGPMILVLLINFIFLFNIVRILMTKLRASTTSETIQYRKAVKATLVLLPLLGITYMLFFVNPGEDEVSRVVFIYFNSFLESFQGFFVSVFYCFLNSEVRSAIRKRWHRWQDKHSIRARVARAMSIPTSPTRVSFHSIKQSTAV
Assay type: cell membranes

Row | IC50 [µM] | Compound
1 | 0.17 | CCCCN(CC)c1nc(C)nc2c1sc(=N)n2-c1c(C)cc(C)cc1C
2 | 0.447 | CCN(CC)c1nc(C)nc2c1s/c(=N/N)n2-c1c(C)cc(C)cc1C
3 | 0.891 | CCN(CC)c1nc(C)nc2c1sc(=N)n2-c1c(C)cc(C)cc1C
